Tests used:
[1] = log k'80 PLRP-S chromatographic lipophilicity; type: physicochemical; settings: 80% ACN / 20% 20 mM ammonium acetate, pH 7.0
Method: Molecular properties have been quantified with physicochemical descriptors of ionization, lipophilicity, polarity and chameleonicity (see Methods). First, ionization of the 11 PROTACs (basic center, Figure a) was analyzed by potentiometry. However, standard pK a measurements in water were limited by solubility and precipitation issues (data not shown). Therefore, to assess the dominant species at physiological pH we adopted a chromatographic method previously published by some of us. Briefly, we monitored the trend of the capacity factor named log k′80 PLRP-S at different pHs (acid-neutral-basic). […] The most neutral feature of the considered PROTACs in in line with the main role played by the neutral species in crossing membranes.
Lipophilicity was assessed using three chromatographic descriptors, each simulating distinct aspects of membrane environments. BRlogD is a surrogate of the octanol/water distribution coefficient (log D oct) reflecting a general partitioning across biological membranes. Log k W ^IAM implements an Immobilized Artificial Membrane (IAM) column which provides a lipophilicity index in an environment resembling the membrane phospholipids. Finally, log k′80 PLRP-S reflects retention in a hydrophobic polymeric column environment, mimicking the nonpolar core of lipid bilayers, and acts as a surrogate for the toluene/water partition coefficient (log D tol). Lipophilicity remained within a moderate range across all systems.
All chromatographic measurements were performed using the Thermo Scientific Inc. HPLC DIONEX Ultimate 3000 connected to an RS diode array and the Chromeleon 7.2.10 software (www.thermofisher.com). 1.5 mL HPLC vials, 9 mm PP screw caps, and high-performance ergonomic single-channel variable volume pipettors from VWR Signature were used. A Eutech pH Meter 2700 was used to regulate the pH of each buffer and sample (www.fishersci.com). For all the chromatographic descriptors, the mobile phase consisted of an acetonitrile solution (ACN) and 20 mM AAB, pH 7. Moreover, 10 μL was set as the volume of injection of compound concentrations ranging from 50 to 100 μg/mL in ACN/buffer mixtures. One mL/min was chosen as the isocratic flow rate and 30 °C as the oven temperature. However, each chromatographic system (RP) had its own conditions:
Log k′80 PLRP-S and Chamelogk, on the other hand, were measured using the PLRP-S polymeric reversed-phase column (100 Å, 5 μm, 50 × 4.6 mm) from Agilent (www.agilent.com). The assessment of log k′80 PLRP-S involved the measurement and calculation of the capacity factor of each sample at an eluent composition of 80% ACN and 20% 20 mM ammonium acetate at pH 7.0. In addition, acetone, caffeine, phenol and a mixture of uracile, acetophenone and toluene were used as gold standards. Moreover, log k′80 PLRP-S was also assessed at different pHs (2, 7 and 12) using 0.1% formate buffer, 0.1% ammonium acetate, and 10 mM triethylamine.

[2] = In vivo pharmacokinetics in mice (oral bioavailability, clearance); settings: for bioavailability: female, BomTac:NMRI-Foxn1nu, mouse, plasma, mice, AUC_DN oral (typically 30 mg/kg) / AUC_DN IV (5 mg/kg) * 100, read-out: F% (oral bioavailability in mice); for Mouse CL (% Qh): mouse clearance as % of hepatic blood flow
Method: Bioavailability in mice was determined by comparing plasma exposure after oral administration with plasma exposure after intravenous administration (see Experimental Part). The investigated data set includes PROTACs with very low (F < 1%), low (F < 5%) and medium/high (F > 5%, in bold in Table ) oral bioavailability. Only low-clearance PROTACs were investigated, with clearance of less than 10% of the hepatic blood flow, to avoid extensive hepatic first-pass effect (Mouse CL see Table S2).
The authors confirm that the research in this study complies with all relevant ethical regulations. All animal studies were approved by the internal ethics committee (called “ethics committee”) of Boehringer Ingelheim RCV GmbH & Co KG in the department of Cancer Pharmacology and Disease Positioning. Furthermore, all protocols were approved by the Austrian governmental committee (MA 60 Veterinary office; approval numbers GZ: 903122/2017/21, GZ: 154399/2018/16, GZ: MA 58–670393–2019–18, GZ: MA 58–546776–2022–13). Female BomTac:NMRI-Foxn1nu mice were obtained from Taconic Denmark at an age of 6–8 weeks. After arrival at the local AAALAC accredited animal facility at Boehringer Ingelheim RCV GmbH & Co KG mice were allowed to adjust to housing conditions for at least 5 days before the start of the experiment, i.e. mice in all experiments were 7–9 weeks old. Mice were group-housed under pathogen-free and controlled environmental conditions (21 ± 1.5 °C temperature, 55 ± 10% humidity) and handled according to the institutional, governmental and European Union guidelines (Austrian Animal Protection Laws, GV SOLAS and FELASA). Animal studies were approved as described in the Ethics section. Food and water were provided ad libitum.
All pharmacokinetic studies were conducted with three mice per dose group and testing route. Oral bioavailability was determined by comparing the dose-normalized area under the plasma concentration–time curve (AUC_DN) following oral administration to the AUC_DN after intravenous (IV) administration of the same drug. All oral administrations were conducted with a volume of application of 10 mL/kg, typically at a dose of 30 mg/kg as a solution in a 25% to 40% HP-β-CD at a pH range of 4 to 5. Intravenous administrations were conducted at a dose of 5 mg/kg, with a volume of application of 5 mL/kg in 25% HP-β-CD at a pH of 5. Blood samples were obtained from the vena saphena at five time points after each administration, with the aim of measuring the drug concentration in the plasma. The concentrations of the compound in plasma samples were determined by quantitative HPLC-MS/MS, employing an internal standard. Calibration and quality control samples were prepared using blank plasma from untreated animals. The samples were precipitated with acetonitrile and subsequently injected into an HPLC system (Agilent 1200). The separation was conducted using a gradient of 5 mmol/L ammonium acetate at pH 4.0 and acetonitrile with 0.1% formic acid on a 2.1 mm by 50 mm XBridge BEH C18 reversed-phase column with 2.5 μm particles (Waters). The HPLC was interfaced with an ESI-operated triple quadrupole mass spectrometer (5000 or 6500+ Triple Quad System, SCIEX) operated in multiple reaction monitoring mode. The chromatograms were analyzed using Analyst (SCIEX), and the pharmacokinetic parameters, such as AUC_DN, were calculated using noncompartmental analysis with BI-proprietary software.
The oral bioavailability (F%) was calculated using the following formula: F% = AUC_DN_oral/AUC_DN_IV) * 100.

Row | SMILES | log k'80 PLRP-S [1] | bioavailability [2] [%] | Mouse CL (% Qh) [2] [% Qh]
1 | Cc1ncsc1-c1ccc([C@H](CCCN2CCC(c3ccc4c(c3)n(C3CCCC3)c3nc(=O)c5c(Br)cccc5n43)CC2)NC(=O)[C@@H]2C[C@@H](O)CN2C(=O)[C@@H](NC(=O)C2(F)CC2)C(C)(C)C)cc1 [A3-1] | 0.07 | 0.6 | 7.9
2 | Cc1ncsc1-c1ccc([C@H](C[C@H](C)CN2CCC(c3ccc4c(c3)n(C3CCCC3)c3nc(=O)c5c(Br)cccc5n43)CC2)NC(=O)[C@@H]2C[C@@H](O)CN2C(=O)[C@@H](NC(=O)C2(F)CC2)C(C)(C)C)cc1 [A3-2] | 0.18 | 5.4 | 3.6
3 | Cc1ncsc1-c1ccc([C@H](C[C@@H](C)CN2CCC(c3ccc4c(c3)n(C3CCCC3)c3nc(=O)c5c(Br)cccc5n43)CC2)NC(=O)[C@@H]2C[C@@H](O)CN2C(=O)[C@@H](NC(=O)C2(F)CC2)C(C)(C)C)cc1 [A3-3] | 0.32 | 16.4 | 9.3
4 | Cc1ncsc1-c1ccc([C@H](CCCCCN2CCC(c3ccc4c(c3)n(C3CCCC3)c3nc(=O)c5c(Br)cccc5n43)CC2)NC(=O)[C@@H]2C[C@@H](O)CN2C(=O)[C@@H](NC(=O)C2(F)CC2)C(C)(C)C)cc1 [A5-1] | 0.03 | 4.3 | 2.5
5 | Cc1ncsc1-c1ccc([C@H](CC[C@H](C)CCN2CCC(c3ccc4c(c3)n(C3CCCC3)c3nc(=O)c5c(Br)cccc5n43)CC2)NC(=O)[C@@H]2C[C@@H](O)CN2C(=O)[C@@H](NC(=O)C2(F)CC2)C(C)(C)C)cc1 [A5-2] | 0.22 | 22.1 | 2.3
6 | Cc1ncsc1-c1ccc([C@H](CC[C@@H](C)CCN2CCC(c3ccc4c(c3)n(C3CCCC3)c3nc(=O)c5c(Br)cccc5n43)CC2)NC(=O)[C@@H]2C[C@@H](O)CN2C(=O)[C@@H](NC(=O)C2(F)CC2)C(C)(C)C)cc1 [A5-3] | 0.28 | 31.5 | 3.9
7 | Cc1ncsc1-c1ccc([C@@H](CC[C@@H](C)CCN2CCC(c3ccc4c(c3)n(C3CCCC3)c3nc(=O)c5c(Br)cccc5n43)CC2)NC(=O)[C@@H]2C[C@@H](O)CN2C(=O)[C@@H](NC(=O)C2(F)CC2)C(C)(C)C)cc1 [A5-4] | 0.14 | 1.2 | 2.8
8 | Cc1ncsc1-c1ccc([C@H](COCCN2CCC(c3ccc4c(c3)n(C3CCCC3)c3nc(=O)c5c(Br)cccc5n43)CC2)NC(=O)[C@@H]2C[C@@H](O)CN2C(=O)[C@@H](NC(=O)C2(F)CC2)C(C)(C)C)cc1 [B-1] | 0.05 | 0.9 | 8.5
9 | Cc1ncsc1-c1ccc([C@H](CO[C@H](C)CN2CCC(c3ccc4c(c3)n(C3CCCC3)c3nc(=O)c5c(Br)cccc5n43)CC2)NC(=O)[C@@H]2C[C@@H](O)CN2C(=O)[C@@H](NC(=O)C2(F)CC2)C(C)(C)C)cc1 [B-2] | 0.05 | 1.7 | 5.4
10 | Cc1ncsc1-c1ccc([C@H](CO[C@@H](C)CN2CCC(c3ccc4c(c3)n(C3CCCC3)c3nc(=O)c5c(Br)cccc5n43)CC2)NC(=O)[C@@H]2C[C@@H](O)CN2C(=O)[C@@H](NC(=O)C2(F)CC2)C(C)(C)C)cc1 [B-3] | 0.08 | 2.3 | 7.1
11 | Cc1ncsc1-c1ccc([C@H](COC(C)(C)CN2CCC(c3ccc4c(c3)n(C3CCCC3)c3nc(=O)c5c(Br)cccc5n43)CC2)NC(=O)[C@@H]2C[C@@H](O)CN2C(=O)[C@@H](NC(=O)C2(F)CC2)C(C)(C)C)cc1 [B-4] | 0.11 | 90.9 | 6.0

Source: article PMC12362582, “Linker Methylation as a Strategy to Enhance PROTAC Oral Bioavailability: Insights from Molecular Properties and Conformational Analysis” (Journal of Medicinal Chemistry, 2025)
